Several values for one entry are separate records, joined by “and”; a condition that tells them apart may be missing. Equal values may be shown once.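 Dose response: 5 concentrations. Exposure: 48 h. Format: 96-well plates. Endpoint: linear interpolation; highest concentration if not reached. Here, GI50 denotes the concentration required for 50% inhibition of growth. Definition used: TGI = concentration required for complete inhibition of growth.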
Key:
Experiment in all cases: NCI tumour cell line growth inhibition, 48 h
HOP-92 NSCLC = system: HOP-92 NSCLC
OVCAR-3 ovarian = system: OVCAR-3 ovarian
MCF7 breast = system: MCF7 breast
A498 renal = system: A498 renal
MDA-MB-231 breast = system: MDA-MB-231 breast
BT-549 breast = system: BT-549 breast
DU-145 prostate = system: DU-145 prostate
UO-31 renal = system: UO-31 renal

Row | SMILES | GI50 (HOP-92 NSCLC) [µM] | TGI (HOP-92 NSCLC) | GI50 (OVCAR-3 ovarian) [µM] | TGI (OVCAR-3 ovarian) | GI50 (MCF7 breast) [µM] | TGI (MCF7 breast) [µM] | GI50 (A498 renal) [µM] | TGI (A498 renal) | GI50 (MDA-MB-231 breast) [µM] | TGI (MDA-MB-231 breast) [µM] | GI50 (BT-549 breast) [µM] | TGI (BT-549 breast) | GI50 (DU-145 prostate) [µM] | TGI (DU-145 prostate) [µM] | GI50 (UO-31 renal) [µM] | TGI (UO-31 renal)
1 | Oc1[nH]c2ccc(Cl)cc2c1/C=c1/ccc2c(c1)N=C(c1ccc(C(F)(F)F)cc1)N=2 | 1.68 | 4.35 µM | 1.56 | 3.21 µM | 2.25 | 7.64 | 1.32 | 4.17 µM | 1.75 | 3.63 | 1.87 | 4.75 µM | 3.12 | 10.4 | 2.56 | 9.81 µM
2 | O=C1NC(=O)C(N2CCc3ccccc32)=C1c1ccc(Cl)cc1 | 6.38 | > 25 µM | > 25 | > 25 µM | > 25 | > 25 | > 22.4 | > 25 µM | > 25 | > 25 | > 15.5 | > 25 µM | > 25 | > 25 | > 17.3 | > 25 µM
3 | CCN1CCN(CC(=O)Nc2nc3ccc(NCc4ccc(C)cc4)cc3s2)CC1 | 0.504 | 2.34 µM | 4.93 | 13.7 µM | 1.81 | 8.41 | 5.27 | 11.3 µM | 2.72 | 10 | 6.45 | 19.3 µM | 7.97 | 16.4 | 2.57 | 10.8 µM
4 | Cc1cc2oc(=O)c(Cl)c(Cl)c2c(C)c1Cl | – | 7.45 µM | – | 7.1 µM | – | 23.5 | – | 34 µM | – | 28.7 | – | 39 µM | – | 27.8 | – | 25.3 µM
5 | O=C1/C(=C\c2ccc([N+](=O)[O-])cc2)CS(=O)(=O)C/C1=C/c1ccc([N+](=O)[O-])cc1 | 0.258 | 0.656 µM and 6.43 µM | 0.0761 | 0.329 µM and 0.754 µM | 0.157 | 2.12 | 0.332 | 0.966 µM and 3.37 µM | 0.36 | 0.533 | – | 0.845 µM and 1.12 µM | 0.87 | 12.4 | 0.605 | 0.366 µM and 1.85 µM
6 | Cc1ccc(NC(C(=O)c2ccccc2)c2ccccc2)cc1 (stereo not drawn) | 3.58 | 8.95 µM | 3.31 | 59.9 µM | 3.79 | 40.7 | 2.91 | 15.5 µM | 13 | > 100 | – | – | 3.18 | 15.4 | 13.8 | 35.8 µM
7 | Cc1ccc(C2NC(=S)N3C(c4ccc(C)cc4)NC(=S)N23)cc1 (stereo not drawn) | – | – | 3.26 | 11.5 µM | 2.73 | 12.9 | 5.57 | 18 µM | 9.16 | 24 | 10.3 | 23.7 µM | 3.62 | 13.6 | 12 | 28.2 µM
8 | COc1ccc(C2c3cc4c(c(OC)c3CC3OCC(=O)C32)OCO4)cc1OC (stereo not drawn) | – | > 100 µM | – | – | – | – | < 0.01 | > 100 µM | < 0.01 | 0.123 | < 0.01 | > 100 µM | < 0.01 | – | < 0.01 | 48.4 µM
9 | O=c1[nH]cc(CO)c(=O)[nH]1 | > 100 | > 100 µM | > 100 | > 100 µM | > 100 | > 100 | > 100 | > 100 µM | > 100 | > 100 | > 100 | > 100 µM | – | – | > 100 | > 100 µM
10 | O=S(=O)(CC(O)C(Cl)(Cl)Cl)NNc1ccccc1 (stereo not drawn) | – | > 100 µM | – | > 100 µM | – | > 100 | – | > 100 µM | – | > 100 | – | > 100 µM | – | > 100 | – | –
11 | C=C(CS(=O)(=O)c1ccccc1)C(=O)OCC | – | 40 µM | – | 26.5 µM | – | – | – | – | – | – | – | – | – | – | – | 35.4 µM
12 | COc1ccc2oc(-c3cc4cc(OC)ccc4o3)cc2c1 | – | > 100 µM | – | > 100 µM | – | – | – | – | – | – | – | – | – | – | – | > 100 µM
13 | Nc1nc2c(c(=O)[nH]1)N=C(COP(=O)(O)OP(=O)(O)O)CN2 | – | – | – | – | – | > 100 | – | > 100 µM | – | > 100 | – | > 100 µM | – | > 100 | – | > 100 µM
14 | COc1ccc(-c2nnc(Nc3nc(O)c(C4=c5cc(OC(F)(F)F)ccc5=NC4=O)s3)o2)cc1 | 15.7 | 43.5 µM | 5.75 | 90.8 µM | 39.7 | > 100 | – | – | 13.9 | 30.3 | 19.7 | 37.7 µM | 23.4 | 87.1 | 21.9 | 54.3 µM
15 | O=C(O)CC1C(=O)OC2C3COC(=O)c4cc(O)c(O)c(O)c4-c4c(cc(O)c(O)c4O)C(=O)OC2C(OC(=O)c2cc(O)c(O)c4c2C1C(O)C(=O)O4)C(OC(=O)c1cc(O)c(O)c(O)c1)O3 (stereo not drawn) | – | 52.6 µM | – | 72.8 µM | – | 40.6 | – | > 100 µM | – | 78.6 | – | – | – | > 100 | – | > 100 µM
16 | COc1cc(-c2nccc3[nH]c(-c4cccc5[nH]ccc45)nc23)cc(OC)c1OC | < 0.01 | 19 µM | < 0.01 | 11 µM | < 0.01 | 14.4 | – | – | < 0.01 | 17.1 | – | – | < 0.01 | 15.6 | 0.124 | 16.2 µM
17 | COc1cc(C2CC(=O)c3c(C)nn(-c4nc5ccccc5[nH]4)c3C2)cc(OC)c1OC (stereo not drawn) | – | – | – | – | > 100 | > 100 | 7.06 | > 100 µM | – | – | 76.6 | > 100 µM | > 100 | > 100 | – | –
18 | Cc1cn(C2CC(N=[N+]=[N-])C(CO)O2)c(=O)[nH]c1=O (stereo not drawn) | > 1000 | > 1000 µM | > 1000 | > 1000 µM | 50.1 | > 1000 | – | – | > 1000 | > 1000 | – | > 1000 µM | – | > 1000 | > 1000 | > 1000 µM
19 | COc1cccc(C(C#N)NC23CC4CC(CC(C4)C2)C3)c1 (stereo not drawn) | – | > 100 µM | – | > 100 µM | – | > 100 | – | – | – | > 100 | – | > 100 µM | – | > 100 | – | > 100 µM
20 | c1cc2ccc3cc2cc1CNCCOCCNCc1ccc2ccc(cc2c1)CNCCOCCNC3 | – | – | > 100 | > 100 µM | > 100 | > 100 | > 100 | > 100 µM | > 100 | > 100 | > 100 | > 100 µM | > 100 | > 100 | > 100 | > 100 µM
21 | S=C(Nc1ccc(Cl)cc1)SC1CCCCC1 | – | 71.2 µM | – | 56.9 µM | – | 40.6 | – | – | – | > 100 | – | > 100 µM | – | > 100 | – | > 100 µM
